The test system of this assay is MIA PaCa-2 cells. Briefly: MIA PaCa2 cell-based assay (1,536-well high-content imaging ALDEFLUOR assay). Also noted: species or system human. To be noted: Homo sapiens, 0.5 h, ALDEFLUOR BAAA substrate 500 nM, 30 minutes. Put shortly: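 High-content ALDEFLUOR imaging readout: BAA-retaining cells in FITC channel scored against Hoechst-counted nuclei. Before imaging, MIA PaCa-2 cells seeded at 1,000 per well received final 500 nM BAAA and 0.5 nM Hoechst with compounds in 16-point series (1.4 nM to 47.8 μM), 30 min, 37° C.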
The compound `C=CS(=O)(=O)N1CCN(c2c(C(=O)N3CCN(S(C)(=O)=O)CC3)cnc3ccc(F)cc23)CC1` [Example 221, (6-fluoro-4-(4-(vinylsulfonyl)piperazin-1-yl)quinolin-3-yl)(4-(methylsulfonyl)piperazin-1-yl)methanone] gave an IC50 of 1 to 10 µM.

Turning to `C[C@@H]1CN(C(=O)c2cnc3ccc(F)cc3c2N2CCC(C)(C#N)CC2)CCN1S(C)(=O)=O` [Example 223, (R)-1-(6-fluoro-3-(3-methyl-4-(methylsulfonyl)piperazine-1-carbonyl)quinolin-4-yl)-4-methylpiperidine-4-carbonitrile], the IC50 is 1 to 10 µM. Then `C[C@H]1CN(C(=O)c2cnc3ccc(F)cc3c2N2CCC(C)(C#N)CC2)CCN1S(C)(=O)=O` [Example 226, (S)-1-(6-fluoro-3-(3-methyl-4-(methylsulfonyl)piperazine-1-carbonyl)quinolin-4-yl)-4-methylpiperidine-4-carbonitrile], with 1 to 10 µM; and `CC1(C#N)CCN(c2c(C(=O)N3CCN(S(C)(=O)=O)C(C)(C)C3)cnc3ccc(F)cc23)CC1` [Example 229, 1-(3-(3,3-dimethyl-4-(methylsulfonyl)piperazine-1-carbonyl)-6-fluoroquinolin-4-yl)-4-methylpiperidine-4-carbonitrile], with above 10 µM; and `CC1(C#N)CCN(c2c(C(=O)N3CCN(C(=O)C4CC4)CC3)cnc3ccsc23)CC1` [Example 233, 1-(6-(4-(cyclopropanecarbonyl)piperazine-1-carbonyl)thieno[3,2-b]pyridin-7-yl)-4-methylpiperidine-4-carbonitrile], with 0.5 to 1 µM. With `CC1(C#N)CCN(c2c(C(=O)N3CCN(S(C)(=O)=O)CC3)cnc3ccsc23)CC1` [Example 234, 4-methyl-1-(6-(4-(methylsulfonyl)piperazine-1-carbonyl)thieno[3,2-b]pyridin-7-yl)piperidine-4-carbonitrile], the IC50 lay within 1 to 10 µM. Turning to `CC1(C#N)CCN(c2c(C(=O)N3CCN(S(C)(=O)=O)CC3)cnc3[nH]ncc23)CC1` [Example 235, 4-methyl-1-(5-(4-(methylsulfonyl)piperazine-1-carbonyl)-1H-pyrazolo[3,4-b]pyridin-4-yl)piperidine-4-carbonitrile], the IC50 is above 10 µM. The same measure for `CC1(C#N)CCN(c2c(C(=O)N3CCN(S(C)(=O)=O)CC3)cnc3[nH]ccc23)CC1` [Example 236, 4-methyl-1-(5-(4-(methylsulfonyl)piperazine-1-carbonyl)-1H-pyrrolo[2,3-b]pyridin-4-yl)piperidine-4-carbonitrile]: 1 to 10 µM; for `N#CC1(CC2CC2)CCN(c2c(C(=O)N3CCN(C(=O)C4CC4)CC3)cnc3ccc(F)cc23)CC1` [Example 242, 1-(3-(4-(cyclopropanecarbonyl)piperazine-1-carbonyl)-6-fluoroquinolin-4-yl)-4-(cyclopropylmethyl)piperidine-4-carbonitrile]: 0.5 to 1 µM; for `N#CC1(Cc2ccccc2)CCN(c2c(C(=O)N3CCN(C(=O)C4CC4)CC3)cnc3ccc(F)cc23)CC1` [Example 244, 4-benzyl-1-(3-(4-(cyclopropanecarbonyl)piperazine-1-carbonyl)-6-fluoroquinolin-4-yl)piperidine-4-carbonitrile]: above 10 µM. `CS(=O)(=O)N1CCN(C(=O)c2cnc3ccc(F)cc3c2N2CCC(C#N)(Cc3ccccc3)CC2)CC1` [Example 245, 4-benzyl-1-(6-fluoro-3-(4-(methylsulfonyl)piperazine-1-carbonyl)quinolin-4-yl)piperidine-4-carbonitrile] gave an IC50 of 1 to 10 µM. `CS(=O)(=O)N1CCN(C(=O)c2cnc3ccc(F)cc3c2N2CCC3(CC2)C(=O)Cc2ccccc23)CC1` [Example 247, 1′-(6-fluoro-3-(4-(methylsulfonyl)piperazine-1-carbonyl)quinolin-4-yl)spiro[indene-1,4′-piperidin]-2(3H)-one] displayed an IC50 of 1 to 10 µM. For `CS(=O)(=O)N1CCN(C(=O)c2cnc3ccc(F)cc3c2N2CCC(CO)(c3ccccc3)CC2)CC1` [Example 256, (6-fluoro-4-(4-(hydroxymethyl)-4-phenylpiperidin-1-yl)quinolin-3-yl)(4-(methylsulfonyl)piperazin-1-yl)methanone], the IC50 is 1 to 10 µM.

`CS(=O)(=O)N1CCN(C(=O)c2cnc3ccc(F)cc3c2N2CCC(C=O)(c3ccccc3)CC2)CC1` [Example 257, 1-(6-fluoro-3-(4-(methylsulfonyl)piperazine-1-carbonyl)quinolin-4-yl)-4-phenylpiperidine-4-carbaldehyde]: the IC50 was below 0.5 µM.

`CN(C)S(=O)(=O)N1CCN(C(=O)c2cnc3ccc(F)cc3c2-c2ccc(C3(C#N)CC3)cc2)CC1` [Example 260, 4-(4-(4-(1-cyanocyclopropyl)phenyl)-6-fluoroquinoline-3-carbonyl)-N,N-dimethylpiperazine-1-sulfonamide] registered an IC50 below 0.5 µM.

As to `N#CC1(c2ccc(-c3c(C(=O)N4CCN(C(=O)C5CC5)CC4)cnc4ccc(F)cc34)cc2)CC1` [Example 262, 1-(4-(3-(4-(cyclopropanecarbonyl)piperazine-1-carbonyl)-6-fluoroquinolin-4-yl)phenyl)cyclopropanecarbonitrile], the IC50 is below 0.5 µM. `CC(C)(C#N)c1ccc(-c2c(C(=O)N3CCN(C(=O)C4CC4)CC3)cnc3ccc(F)cc23)cc1` [Example 264, 2-(4-(3-(4-(cyclopropanecarbonyl)piperazine-1-carbonyl)-6-fluoroquinolin-4-yl)phenyl)-2-methylpropanenitrile] showed an IC50 below 0.5 µM. The same measure for `CN(C)C(=O)N1CCN(C(=O)c2cnc3ccc(F)cc3c2-c2ccc(C3(C#N)CC3)cc2)CC1` [Example 265, 4-(4-(4-(1-cyanocyclopropyl)phenyl)-6-fluoroquinoline-3-carbonyl)-N,N-dimethylpiperazine-1-carboxamide]: below 0.5 µM; for `CN(C)S(=O)(=O)N1CCN(C(=O)c2cnc3ccc(F)cc3c2N2CCC(C#N)(c3ccccc3)CC2)CC1` [Example 270, 4-(4-(4-cyano-4-phenylpiperidin-1-yl)-6-fluoroquinoline-3-carbonyl)-N,N-dimethylpiperazine-1-sulfonamide]: below 0.5 µM; for `CN(C)C(=O)N1CCN(C(=O)c2cnc3ccc(F)cc3c2N2CCC(C#N)(c3ccccc3)CC2)CC1` [Example 272, 4-(4-(4-cyano-4-phenylpiperidin-1-yl)-6-fluoroquinoline-3-carbonyl)-N,N-dimethylpiperazine-1-carboxamide]: below 0.5 µM. With `CS(=O)(=O)N1CCN(C(=O)c2cnc3ccc(F)cc3c2N2CCC(C#N)(c3ccccc3F)CC2)CC1` [Example 274, 1-(6-fluoro-3-(4-(methylsulfonyl)piperazine-1-carbonyl)quinolin-4-yl)-4-(2-fluorophenyl)piperidine-4-carbonitrile], the IC50 is below 0.5 µM.

As to `CS(=O)(=O)N1CCN(C(=O)c2cnc3ccc(F)cc3c2N2CCC(C#N)(c3ccc(Cl)cc3)CC2)CC1` [Example 275, 4-(4-chlorophenyl)-1-(6-fluoro-3-(4-(methylsulfonyl)piperazine-1-carbonyl)quinolin-4-yl)piperidine-4-carbonitrile], the IC50 was below 0.5 µM.

With `CS(=O)(=O)N1CCN(C(=O)c2cnc3ccc(F)cc3c2N2CCC(C#N)(c3ccc(F)cc3)CC2)CC1` [Example 279, 1-(6-fluoro-3-(4-(methylsulfonyl)piperazine-1-carbonyl)quinolin-4-yl)-4-(4-fluorophenyl)piperidine-4-carbonitrile], the IC50 is below 0.5 µM. `N#CC1(c2ccccc2)CCN(c2c(C(=O)N3CCN(C(=O)C4CC4)CC3)cnc3ccsc23)CC1` [Example 282, 1-(6-(4-(cyclopropanecarbonyl)piperazine-1-carbonyl)thieno[3,2-b]pyridin-7-yl)-4-phenylpiperidine-4-carbonitrile]: the IC50 was below 0.5 µM. In the case of `CS(=O)(=O)N1CCN(C(=O)c2cnc3ccsc3c2N2CCC(C#N)(c3ccccc3)CC2)CC1` [Example 285, 1-(6-(4-(methylsulfonyl)piperazine-1-carbonyl)thieno[3,2-b]pyridin-7-yl)-4-phenylpiperidine-4-carbonitrile], the IC50 is below 0.5 µM.

`CS(=O)(=O)N1CCN(C(=O)c2cnc3ccsc3c2-c2ccc(C3(C#N)CC3)cc2)CC1` [Example 286]: the IC50 is below 0.5 µM. For `N#CC1(c2ccc(-c3c(C(=O)N4CCN(C(=O)C5CC5)CC4)cnc4ccsc34)cc2)CC1` [Example 288, 1-(4-(6-(4-(cyclopropanecarbonyl)piperazine-1-carbonyl)thieno[3,2-b]pyridin-7-yl)phenyl)cyclopropanecarbonitrile], the IC50 is below 0.5 µM. For `CS(=O)(=O)N1CCN(C(=O)c2cnc3ccc(F)cc3c2N2CCC(O)(c3ccccc3)CC2)CC1` [Example 292, (6-fluoro-4-(4-hydroxy-4-phenylpiperidin-1-yl)quinolin-3-yl)(4-(methylsulfonyl)piperazin-1-yl)methanone], the IC50 is 1 to 10 µM. Turning to `N#CC1(c2ccc(-c3c(C(=O)N4CCN(C(=O)C5CC5)CC4)cnc4ccc(Cl)cc34)cc2)CC1` [Example 294, 1-(4-(6-chloro-3-(4-(cyclopropanecarbonyl)piperazine-1-carbonyl)quinolin-4-yl)phenyl)cyclopropanecarbonitrile], the IC50 is below 0.5 µM. Then `CS(=O)(=O)N1CCN(C(=O)c2cnc3ccc(Cl)cc3c2-c2ccc(C3(C#N)CC3)cc2)CC1` [Example 297, 1-(4-(6-chloro-3-(4-(methylsulfonyl)piperazine-1-carbonyl)quinolin-4-yl)phenyl)cyclopropanecarbonitrile], with below 0.5 µM.

In the case of `CC1(C)CC=C(c2c(C(=O)N3CCN(S(C)(=O)=O)CC3)cnc3ccc(F)cc23)CC1` [Example 301, (4-(4,4-dimethylcyclohex-1-en-1-yl)-6-fluoroquinolin-3-yl)(4-(methylsulfonyl)piperazin-1-yl)methanone], the IC50 is below 0.5 µM.

These data come from patent publication US11795177B2, “Substituted quinoline analogs as aldehyde dehydrogenase 1A1 (ALDH1A1) inhibitors” (THE UNITED STATES OF AMERICA, AS REPRESENTED BY THE …, priority 2017, dated 2023).
